# Measured values taken from patent publication US20230026163A1, “ANTICANCER COMPOUND AND MEDICAL USE THEREOF” (ASCENTAWITS PHARMACEUTICALS, LTD., priority 2019, published 2023).
# Experiments:
# [1] = tested on: GA6201 tumor of HuPrime® model; test: PDX model, subcutaneously transplanted human gastric cancer; type: in vivo, BALB/c nude mice; conditions: for Tumor volume: ifosfamide 60 mg/kg i.p., compound 01 5-50 mg/kg
# Procedure: BALB/c nude mice were subcutaneously inoculated with GA6201 tumor of HuPrime® model to establish a subcutaneously transplanted tumor model of human gastric cancer. The experiment was divided into a vehicle control group 1 with normal saline (pH 7.0-7.6), a control group 2 with ifosfamide (60 mg/kg), and an Experimental group (Exp. group) with compound 01 (5-50 mg/kg), and 5 mice per group.
# The Exp. group with compound 01 (5-50 mg/kg) was administered by intraperitoneal injection for 5 consecutive days and stopped for 2 days a week, and administered for 2 weeks. Then, the dose was changed to 10 mg/kg by intraperitoneal injection, administered daily for 4 days. After that, the dose and administration method were changed. The dose was 20 mg/kg by tail vein injection for 1 day. After 10 days of drug withdrawal, the dose was changed again. The dose was 50 mg/kg by tail vein injection, once a week, for 2 weeks, and one week of observation. […] The safety was evaluated according to the changes in animal body weight and death.
# The tumor volume of each group of mice was measured on different days, and the average value was obtained.
# UV41 cell line = test: Cytotoxicity on UV41 cell line with DNA repair gene mutation (2 hours exposure, AlamarBlue); type: cell-based, Chinese hamster; conditions: Cricetulus griseus; UV41, 2 hours exposure, then 70 hours, normoxic
# Procedure: UV41 cell line is a derivative of CHO-AA8 cell line, derived from the UV-sensitive line of AA8. The cell line is a cell line with damaged homologous recombination DNA repair enzymes and damaged nucleotide excision repair enzymes caused by mutations in ERCC4/XPF gene of DNA.
# Specifically, the exponentially growing cells were seeded in 96-well plates at a density of 4×10^3 cells/well and incubated at 37° C., in 5% CO2, 95% air, and 100% relative humidity. Next, 24 hours later, the test compounds were added. The test compounds were dissolved in 100% DMSO at 200 times the desired final test concentration. Upon addition of the test compounds, the test compounds were further diluted with the complete medium to 4 times the desired final concentration. Aliquots of 50 μL of the compounds at specific concentrations were added to the microwells containing 150 μL of medium to obtain the final compound concentrations as reported. After the test compounds were added, the plates were incubated for an addition 2 hours at 37° C., in 5% CO2, 95% air, and 100% relative humidity. Then, the compounds were washed off, and fresh medium was added to the plates. The plates were incubated for an addition 70 hours at 37° C., in 5% CO2, 95% air, and 100% relative humidity. At the end of this incubation, AlamarBlue reagent was used to quantify viable cells.
# [2] = Hepatomicrosome stability, mouse; conditions: for Remaining percentage after 30 minutes: Mouse, 2 μM
# Procedure: 1a) With NADPH: 10 μL of 20 mg/mL of hepatomicrosome and 40 μL of 10 mM of NADPH were added to medium. The final concentrations of hepatomicrosome and NADPH were 0.5 mg/mL and 1 mM, respectively.
# 1b) Without NADPH: 10 μL of 20 mg/mL hepatomicrosome and 40 μL of ultra-pure H2O were added to medium. The final concentration of hepatomicrosome was 0.5 mg/mL.
# 3) 3) Aliquots of 50 μL from the reaction solutions at 0 minute and 30 minutes were taken. The reaction solutions were stopped by adding 4 volumes of cold acetonitrile and 4 internal standards (IS internal standard, 100 nM of Alprazolam, 200 nM of caffeine, 200 nM of Labetalol, and 2 μM of Ketoprofen) to stop the reaction solution. The samples were centrifuged at 3,220 g for 40 minutes. Aliquots of 100 μL of the supernatants were mixed with 100 μL of ultra-pure H2O. Then, the mixtures were used for LC-MS/MS analysis. All experiments were performed in duplicate. The test results were as follow.
smiles,measurement,setting,value
O=[N+]([O-])c1ccc(C(OP(=O)(N2CC2)N2CC2)C(F)(F)F)c2ccccc12 (centres unmarked) [Compound 01],Inhibition of tumor growth compared with ifosfamide (conclusion),[1]; GA6201 PDX,obvious advantages in inhibiting tumor growth
same,Tumor volume,[1]; day 0,94.24 mm^3
same,Tumor volume,[1]; day 3,121.79 mm^3
same,Tumor volume,[1]; day 7,123.19 mm^3
same,Tumor volume,[1]; day 10,153.46 mm^3
same,Tumor volume,[1]; day 14,191.17 mm^3
same,Tumor volume,[1]; day 17,219.91 mm^3
same,Tumor volume,[1]; day 21,246.57 mm^3
same,Tumor volume,[1]; day 24,271.72 mm^3
same,Tumor volume,[1]; day 28,280.86 mm^3
same,Tumor volume,[1]; day 31,270.68 mm^3
same,Tumor volume,[1]; day 35,299.31 mm^3
same,Tumor volume,[1]; day 38,277.17 mm^3
same,Tumor volume,[1]; day 42,300.46 mm^3
same,Tumor volume,[1]; day 45,342.08 mm^3
same,Tumor volume,[1]; day 49,287.47 mm^3
same,IC50,UV41 cell line,340 nM
same,Remaining percentage after 30 minutes,[2]; with NADPH,102.89%
same,Remaining percentage after 30 minutes,[2]; without NADPH,103.07%
same,Stability in hepatomicrosomes (conclusion),[2]; mice,relatively stable
